The values that follow come from ChEMBL document CHEMBL1201862, “PubChem BioAssay data set” (2004).

Structures are written as SMILES.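 Method: 48-hour compound exposure of cells in 96-well plates, five concentrations, linear interpolation of endpoints. GI50 = concentration required for 50% inhibition of growth.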 Calls of active or inactive are those of the source. Cut-off read from the data, not from the text of the source: active = GI50 up to about 1.1 µM and inactive = higher.

Some test systems named below: A498; ACHN; BT-549; CCRF-CEM; COLO 205; LOX IMVI; NCI-H460; NCI-H522; NCI/ADR-RES; OVCAR-4; SF-268; SK-OV-3; SW-620; T47D; UACC-62; UO-31; Hs-578T; K562; MCF7; SF-295.
Common to all, as to assay: NCI-60 cell line screen, 48 h

With `Brc1ccc2c(-c3csc(-c4c[nH]c5ccccc45)n3)c[nH]c2c1`, the GI50 in the assay on A498 is 17 µM (inactive); in the assay with ACHN, 15.7 µM (inactive); with BT-549 it was 18.3 µM (inactive); in the assay with CCRF-CEM, 14.7 µM (inactive); in the assay with COLO 205 it was 12.8 µM (inactive); with LOX IMVI, 15.5 µM (inactive). The GI50 was 16.1 µM (inactive) in the assay with NCI-H460; 17.3 µM (inactive) in the assay with NCI-H522; 16.8 µM (inactive) in the assay with NCI/ADR-RES; 16 µM (inactive) in the assay with OVCAR-4; 18.3 µM (inactive) in the assay with SF-268; 18.9 µM (inactive) with SK-OV-3. For the same molecule, the GI50 with SW-620 is 16.5 µM (inactive); in the assay with T47D, 24.8 µM (inactive); with UACC-62, 18.2 µM (inactive); in the assay on UO-31, 14 µM (inactive).

On to `CN(C)CCC(=O)N1C/C(=C/c2ccccc2)C(=O)/C(=C\c2ccccc2)C1`, for which the GI50 with A498 was 3.12 µM (inactive); in the assay with ACHN, 2.01 µM (inactive); in the assay on BT-549, 0.883 µM (active); in the assay on CCRF-CEM, 0.191 µM (active); in the assay on COLO 205, 2.24 µM (inactive); in the assay on Hs-578T, 3.55 µM (inactive). Also, the GI50 with K562 is 0.182 µM (active); with LOX IMVI it was 0.436 µM (active); in the assay on MCF7, 0.349 µM (active); with NCI-H460, 2.33 µM (inactive); with NCI-H522, 0.301 µM (active); with OVCAR-4, 2.17 µM (inactive). Further, the GI50 in the assay on SF-268 was 2.74 µM (inactive); with SF-295, 2.93 µM (inactive); in the assay with SK-OV-3, 6.25 µM (inactive); in the assay with SW-620 it was 0.275 µM (active); in the assay with T47D, 4.82 µM (inactive); in the assay on UACC-62 it was 1.53 µM (inactive). In the assay with UO-31, the GI50 is 2.36 µM (inactive).

As for `O=C1CC(c2ccc(Cl)cc2)C2(C(=O)NC(=O)NC2=O)C(c2ccc(Cl)cc2)C1` (stereo not drawn), the GI50 in the assay with ACHN was 49 µM (inactive); with BT-549, 30.7 µM (inactive); in the assay with CCRF-CEM, 30.3 µM (inactive); in the assay on COLO 205 it was 20.2 µM (inactive); in the assay on K562, 7.5 µM (inactive); in the assay on LOX IMVI, 31.4 µM (inactive). Further, the GI50 in the assay with MCF7 was 22.3 µM (inactive); in the assay on NCI-H460 it was 28.6 µM (inactive); in the assay on NCI-H522, 17.5 µM (inactive); with NCI/ADR-RES, 26.4 µM (inactive); in the assay on OVCAR-4, 38.5 µM (inactive); in the assay on SF-268, 42.8 µM (inactive). The GI50 in the assay on SF-295 was 28.8 µM (inactive); in the assay on SW-620, 26.2 µM (inactive); in the assay with T47D, 17.9 µM (inactive); in the assay on UACC-62 it was 40.5 µM (inactive); in the assay with UO-31, 25.6 µM (inactive).

With `O=C1CN(c2ccccc2)Cc2nc(Cl)ccc2N1`, the GI50 is > 100 µM (inactive) in the assay on ACHN; > 100 µM (inactive) in the assay on BT-549; > 100 µM (inactive) in the assay with CCRF-CEM; > 100 µM (inactive) in the assay on COLO 205; 61.9 µM (inactive) with Hs-578T; > 100 µM (inactive) in the assay with K562. Also, the GI50 in the assay with LOX IMVI was > 100 µM (inactive); with MCF7, > 100 µM (inactive); with NCI-H460 it was > 100 µM (inactive); with NCI-H522, > 100 µM (inactive); in the assay with NCI/ADR-RES it was 94 µM (inactive); with OVCAR-4, > 100 µM (inactive). Further, the GI50 is > 100 µM (inactive) in the assay on SF-268; > 100 µM (inactive) in the assay with SF-295; > 100 µM (inactive) with SK-OV-3; > 100 µM (inactive) in the assay on SW-620; > 100 µM (inactive) in the assay on T47D; 95.5 µM (inactive) in the assay on UACC-62. In addition, in the assay with UO-31, the GI50 is > 100 µM (inactive).

Regarding `CC1C(c2ccccc2)NC(c2ccccc2)CC1(N)C#N` (stereo not drawn), the GI50 in the assay with ACHN was > 100 µM (inactive); in the assay with BT-549, > 100 µM (inactive); with CCRF-CEM, > 100 µM (inactive); in the assay on COLO 205, 43.4 µM (inactive); in the assay on Hs-578T it was > 100 µM (inactive); in the assay with K562 it was > 100 µM (inactive). The GI50 in the assay on LOX IMVI, with MCF7, in the assay on NCI-H460, in the assay with NCI-H522, with NCI/ADR-RES and in the assay on OVCAR-4 was > 100 µM (inactive) each time. For the same molecule, the GI50 in the assay on SF-268 was > 100 µM (inactive); in the assay on SF-295, > 100 µM (inactive); in the assay on SK-OV-3, > 100 µM (inactive); in the assay on SW-620, > 100 µM (inactive); in the assay on T47D it was > 100 µM (inactive); with UACC-62, 90.6 µM (inactive). Moreover, the GI50 with UO-31 was > 100 µM (inactive).

For `COC(=O)c1cc(C#N)[nH]c1-c1cccs1`, the GI50 in the assay with A498 was 37.8 µM (inactive); in the assay on ACHN it was 89.9 µM (inactive); with BT-549 it was 31.8 µM (inactive); in the assay with CCRF-CEM, 48.6 µM (inactive); in the assay on COLO 205, > 100 µM (inactive); in the assay on K562, > 100 µM (inactive). Also, the GI50 in the assay on NCI-H460 was > 100 µM (inactive); in the assay with NCI-H522, 33.9 µM (inactive); in the assay with NCI/ADR-RES it was 33.7 µM (inactive); in the assay with OVCAR-4 it was > 100 µM (inactive); in the assay with SF-268, > 100 µM (inactive); in the assay on SF-295, 86.5 µM (inactive). Besides, the GI50 in the assay with SK-OV-3 is > 100 µM (inactive); in the assay with SW-620, > 100 µM (inactive); with T47D, 24.4 µM (inactive); in the assay on UACC-62, 97.7 µM (inactive); with UO-31, 81.8 µM (inactive).

For `COC(=O)Cc1cc(O)c2c(c1O)C(=O)c1ccccc1C2=O`, the GI50 was 48.1 µM (inactive) with A498; > 57.1 µM (inactive) in the assay on ACHN; > 62.4 µM (inactive) in the assay with BT-549; > 52.6 µM (inactive) with CCRF-CEM; > 100 µM (inactive) with COLO 205; 34 µM (inactive) in the assay with Hs-578T. Further, the GI50 in the assay on K562 was > 100 µM (inactive); in the assay on LOX IMVI it was 99.1 µM (inactive); with NCI-H460, > 100 µM (inactive); with NCI-H522, > 100 µM (inactive); in the assay with NCI/ADR-RES it was 71.9 µM (inactive); in the assay with OVCAR-4 it was > 100 µM (inactive). Moreover, the GI50 was 51.1 µM (inactive) in the assay on SF-268; 27.6 µM (inactive) in the assay on SF-295; 58.3 µM (inactive) in the assay with SK-OV-3; > 100 µM (inactive) in the assay with SW-620; > 100 µM (inactive) with T47D; > 100 µM (inactive) in the assay on UACC-62. Besides, the GI50 in the assay with UO-31 is > 100 µM (inactive).

Consider `CSc1nc(C)c(CCCl)c(Cl)n1`, for which the GI50 in the assay with A498 is > 100 µM (inactive); in the assay with ACHN it was > 100 µM (inactive); in the assay with BT-549 it was 87.7 µM (inactive); in the assay with CCRF-CEM, 20.8 µM (inactive); in the assay with COLO 205, 35.2 µM (inactive); with Hs-578T it was > 100 µM (inactive). The GI50 in the assay on K562 was 31.8 µM (inactive); with LOX IMVI, 29.6 µM (inactive); in the assay with NCI-H460, > 100 µM (inactive); in the assay with NCI-H522, 20.6 µM (inactive); with NCI/ADR-RES, > 100 µM (inactive); in the assay with OVCAR-4, > 100 µM (inactive). Besides, the GI50 with SF-268 was > 100 µM (inactive); with SF-295, > 100 µM (inactive); with SK-OV-3, > 100 µM (inactive); with SW-620, 42.6 µM (inactive); in the assay with T47D it was > 100 µM (inactive); with UACC-62 it was 89.1 µM (inactive). The GI50 in the assay on UO-31 was > 100 µM (inactive).

With `O=C1Nc2ccccc2C(=O)O/C(Cc2ccccc2)=N\c2ccccc21`, the GI50 in the assay on ACHN was > 100 µM (inactive); in the assay on BT-549, > 100 µM (inactive); with CCRF-CEM, 36.1 µM (inactive); in the assay on COLO 205, > 100 µM (inactive); in the assay with K562, > 100 µM (inactive); in the assay on LOX IMVI, > 100 µM (inactive). Further, the GI50 in the assay with MCF7, in the assay on NCI-H460, in the assay with NCI-H522, in the assay on NCI/ADR-RES, in the assay on OVCAR-4 and in the assay with SF-268 was > 100 µM (inactive) each time. The GI50 with SF-295, in the assay with SK-OV-3, with SW-620, with T47D, in the assay with UACC-62 and in the assay with UO-31 was > 100 µM (inactive) in each case.

As for `CC(C)=CCN=C(N)N`, the GI50 with ACHN, in the assay on BT-549, in the assay on CCRF-CEM, with COLO 205, in the assay with Hs-578T and in the assay with LOX IMVI was > 100 µM (inactive) in each case. For the same molecule, the GI50 in the assay with MCF7, in the assay on NCI-H460, in the assay with NCI-H522, with NCI/ADR-RES, in the assay with OVCAR-4 and in the assay on SF-268 was > 100 µM (inactive) in each case. Besides, the GI50 in the assay on SF-295, with SK-OV-3, with SW-620, in the assay on T47D, in the assay on UACC-62 and in the assay with UO-31 was > 100 µM (inactive) each time.

On to `O=C(NCP(=O)(O)O)c1cccnc1` [(NICOTINAMIDOMETHYL)PHOSPHONIC ACID], for which the GI50 with A498, in the assay on ACHN, in the assay with BT-549, with CCRF-CEM, in the assay with COLO 205 and with K562 was > 100 µM (inactive) each time. The GI50 with LOX IMVI, in the assay with MCF7, in the assay on NCI-H460, in the assay on NCI/ADR-RES, in the assay with OVCAR-4 and in the assay on SF-295 was > 100 µM (inactive) each time. For the same molecule, the GI50 with SK-OV-3, with SW-620, in the assay with T47D, in the assay on UACC-62 and in the assay on UO-31 was > 100 µM (inactive) each time.
